This is an account of results in patent US20090137637A1, “Tetrazolyl-Methylene Amino Acid Derivatives” (PFIZER INC., priority 2005, published 2009).

Data set [1] can be described thus: Solubility in pH 6.5 aqueous phosphate buffer (Chemical Method 1, PDS solubility). The format is physicochemical. The settings on record: thermodynamic from solid; saturated solution in pH 6.5 aqueous phosphate buffer, 5% glyme, UV-visible absorbance. On the procedure:
Solubility of a test compound of the present invention refers to solubility of the compound in a solvent mixture containing ethylene glycol dimethylether (“glyme”) and pH 6.5 aqueous phosphate buffer. The solubility was determined by measuring ultraviolet-visible absorbance of a saturated solution of the compound and comparing the absorbance value to absorbance values obtained for four standard solutions of the compound having known concentrations plotted on a 4-point ultraviolet-visible standard curve.
First, a saturated solution of the test compound of the present invention was prepared by adding from about 2- to about 5-mg of the compound to a 96-well plate and adding a volume of pH 6.5 aqueous phosphate buffer, sonicating the mixture for about 10 minutes, and then allowing it to equilibrate overnight (typically 12 to 24 hours). The saturated solution was visually inspected to ensure the presence of particles, and then filtered to give a filtrate of the saturated solution. The filtrate of the saturated solution and a blank (pH 6.5 aqueous phosphate buffer containing no test compound) were then transferred into separate wells in a 96-well UV-transparent disposable plate, and a small amount of glyme was added to each well to give 5% glyme concentration per well.
Standard solutions of the test compound were prepared by dissolving a known amount of the test compound in a known volume of 75/25 volume/volume (“v/v”) glyme/water, and diluting this solution into four different concentrations in 96-well plates with additional 75/25 v/v glyme/water. Then, aliquots from each of the four standard solutions were also transferred to the 96-well UV-transparent disposable plate containing pH 6.5 aqueous phosphate buffer until the glyme concentration in each well was 5%.
The prepared 96-well plate was transferred to a 96-well ultraviolet-visible plate reader, and the wells were scanned over wavelengths of from 220 nm to 350 nm with a step size of 2 nm. The ultraviolet-visible data (i.e., data generated at the same wavelength) were electronically exported to a spreadsheet and absorbance data for the filtrate of the saturated solution measured at one wavelength (i.e., the data that had the best linear fit as calculated by the highest regression coefficient, typically 0.98 or higher) and the corresponding standards absorbance data measured at the same wavelength were plotted as a standard absorbance-concentration curve based on the Lambert-Beer law. The solubility (i.e., saturation concentration) was then back calculated by comparing the absorbance of the filtrate of the saturated solution to the absorbance of the standard solutions of known concentrations at the same wavelength.

In a further data set the target is T1, MMP-9 full-length (Homo sapiens, UniProt P14780).
T1 construct: MMP-9 full-length
The data set is described as follows: Thiopeptolide hydrolysis inhibition assay, MMP-9 full-length. The format is biochemical. The settings on record: thiopeptolide substrate; read-out: MMP-9FL IC50. From the text:
(§1) In general, the MMP inhibition assays measure the amount by which a test compound reduces the hydrolysis of a thiopeptolide substrate catalyzed by a matrix metalloproteinase enzyme. Such assays are described in detail by Ye et al., in Biochemistry, 1992;31(45):11231-11235, which is incorporated herein by reference.
(§2) Thiopeptolide substrates show virtually no decomposition or hydrolysis at or below neutral pH in the absence of a matrix metalloproteinase enzyme. A typical thiopeptolide substrate commonly utilized for assays is Ac-Pro-Leu-Gly-thioester-Leu-Leu-Gly-OEt. A 100 μL assay mixture will contain 50 mM of N-2-hydroxyethylpiperazine-N′-2-ethanesulfonic acid buffer (“HEPES,” pH 7.0), 10 mM CaCl2, 100 μM thiopeptolide substrate, and 1 mM 5,5′-dithio-bis-(2-nitro-benzoic acid) (DTNB). The thiopeptolide substrate concentration may be varied, for example from 10 to 800 μM to obtain Km and Kcat values. The change in absorbance at 405 nm is monitored on a Thermo Max microplate reader (molecular Devices, Menlo Park, Calif.) at room temperature (22° C.). The calculation of the amount of hydrolysis of the thiopeptolide substrate is based on E412=13600 M^−1 cm^−1 for the DTNB-derived product 3-carboxy-4-nitrothiophenoxide. Assays are carried out with and without matrix metalloproteinase inhibitor compounds, and the amount of hydrolysis is compared for a determination of inhibitory activity of the test compounds.
(§3) Test compounds were evaluated at various concentrations in order to determine their respective IC50 values, the micromolar concentration of compound required to cause a 50% inhibition of catalytic activity of the respective enzyme.
(§4) The test described above for the inhibition of MMP-13 may also be adapted and used to determine the ability of the compounds of formula (I) to inhibit the matrix metalloproteases MMP-1, MMP-2, MMP-3, MMP-7, MMP-9, MMP-12, MMP-14, and MMP-17.
(§5) Certain compounds of formula (I) have been assayed with MMP-1 full-length, MMP-2 full-length, MMP-3 catalytic domain, MMP-7 full-length, MMP-8 catalytic domain, MMP-9 full-length, and MMP-12 catalytic domain.

A further data set concerns the target T2, MMP-2 full-length (Homo sapiens, UniProt P08253).
T2 construct: MMP-2 full-length
T2 sequence (P08253 110-660): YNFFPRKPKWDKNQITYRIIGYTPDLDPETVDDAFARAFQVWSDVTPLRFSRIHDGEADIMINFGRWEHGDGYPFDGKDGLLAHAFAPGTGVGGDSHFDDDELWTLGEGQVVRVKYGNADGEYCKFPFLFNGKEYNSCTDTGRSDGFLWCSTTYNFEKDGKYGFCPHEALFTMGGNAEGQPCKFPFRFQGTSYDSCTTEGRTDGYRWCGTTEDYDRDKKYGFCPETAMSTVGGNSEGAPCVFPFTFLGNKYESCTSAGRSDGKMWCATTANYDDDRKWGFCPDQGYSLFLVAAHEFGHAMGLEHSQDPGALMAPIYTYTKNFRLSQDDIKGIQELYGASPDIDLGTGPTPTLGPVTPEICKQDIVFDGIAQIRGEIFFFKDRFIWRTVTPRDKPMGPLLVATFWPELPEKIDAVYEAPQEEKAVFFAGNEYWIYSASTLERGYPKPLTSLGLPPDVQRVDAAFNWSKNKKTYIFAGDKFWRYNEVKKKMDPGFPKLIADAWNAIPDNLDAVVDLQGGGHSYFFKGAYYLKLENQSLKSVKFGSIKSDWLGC
The data set is described as follows: Thiopeptolide hydrolysis inhibition assay, MMP-2 full-length. The format is biochemical. The settings on record: thiopeptolide substrate; read-out: MMP-2FL IC50.
Source text: as §1, §2, §3, §4, §5

In a further data set the target is T3, MMP-3 catalytic domain (Homo sapiens, UniProt P08254).
T3 construct: MMP-3 catalytic domain
The experiment in a line: Thiopeptolide hydrolysis inhibition assay, MMP-3 catalytic domain. The class given is biochemical. The settings on record: thiopeptolide substrate, MES pH 6.0; read-out: MMP-3CD IC50.
Source text: as §1, §2, §3
The assay buffer used with MMP-3CD was 50 mM N-morpholinoethane sulfonate (“MES”) at pH 6.0 rather than the HEPES buffer at pH 7.0 described above.
The test described above for the inhibition of MMP-13 may also be adapted and used to determine the ability of the compounds of formula (I) to inhibit the matrix metalloproteases MMP-1, MMP-2, MMP-3, MMP-7, MMP-9, MMP-12, MMP-14, and MMP-17. […]

Data set [2] has as its target MMP-13 catalytic domain (MMP-13CD) (Homo sapiens, UniProt P45452). The data set is described as follows: Thiopeptolide hydrolysis inhibition assay, MMP-13 catalytic domain. The settings on record: thiopeptolide substrate, HEPES pH 7.0, 22° C. The class given is biochemical.
Source text: as §1
Some of the particular methods described below use the catalytic domain of the MMP-13 enzyme, namely matrix metalloproteinase-13 catalytic domain (“MMP-13CD”), rather than the corresponding full-length enzyme, MMP-13. It has been shown previously by Ye Qi-Zhuang, Hupe D., and Johnson L. (Current Medicinal Chemistry, 1996;3:407418) that inhibitor activity against a catalytic domain of an MMP is predictive of the inhibitor activity against the respective full-length MMP enzyme.
as §2, §3

A further data set addresses T4, MMP-8 catalytic domain (Homo sapiens, UniProt P22894).
T4 construct: MMP-8 catalytic domain
The data set is described as follows: Thiopeptolide hydrolysis inhibition assay, MMP-8 catalytic domain. The class given is biochemical. The settings on record: thiopeptolide substrate; read-out: MMP-8CD IC50.
Source text: as §1, §2, §3, §5

For the next data set, the target named is T5, MMP-7 full-length (Homo sapiens, UniProt P09237).
T5 construct: MMP-7 full-length
T5 sequence (P09237 95-267): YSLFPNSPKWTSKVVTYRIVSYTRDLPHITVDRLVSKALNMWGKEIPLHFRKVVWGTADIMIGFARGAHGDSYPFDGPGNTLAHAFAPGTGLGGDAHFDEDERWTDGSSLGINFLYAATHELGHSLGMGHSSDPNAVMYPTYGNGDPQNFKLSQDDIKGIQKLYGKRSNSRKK
The experiment in a line: Thiopeptolide hydrolysis inhibition assay, MMP-7 full-length. The format is biochemical. The settings on record: thiopeptolide substrate; read-out: MMP-7FL IC50.
Source text: as §1, §2, §3, §4, §5

The target in a further data set is T6, MMP-1 full-length (Homo sapiens, UniProt P03956).
T6 construct: have been assayed with MMP-1 full-length
T6 sequence (P03956 100-469): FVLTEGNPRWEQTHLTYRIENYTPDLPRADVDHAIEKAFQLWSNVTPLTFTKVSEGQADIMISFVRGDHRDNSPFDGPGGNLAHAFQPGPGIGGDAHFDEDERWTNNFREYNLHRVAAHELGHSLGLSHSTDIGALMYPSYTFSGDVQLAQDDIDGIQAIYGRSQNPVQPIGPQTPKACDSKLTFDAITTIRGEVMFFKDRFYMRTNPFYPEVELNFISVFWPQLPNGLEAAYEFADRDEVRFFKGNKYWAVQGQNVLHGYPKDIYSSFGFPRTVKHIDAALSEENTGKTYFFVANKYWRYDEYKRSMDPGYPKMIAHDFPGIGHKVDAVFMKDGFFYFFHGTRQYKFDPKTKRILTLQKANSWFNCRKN
The data set is described as follows: Thiopeptolide hydrolysis inhibition assay, MMP-1 full-length. The class given is biochemical. The settings on record: thiopeptolide substrate; read-out: MMP-1FL IC50.
Source text: as §1, §2, §3, §4, §5

The target of the next data set is T7, MMP-12 catalytic domain (Homo sapiens, UniProt P39900).
T7 construct: MMP-12 catalytic domain
The experiment in a line: Thiopeptolide hydrolysis inhibition assay, MMP-12 catalytic domain. The format is biochemical. The settings on record: thiopeptolide substrate; read-out: MMP-12CD IC50.
Source text: as §1, §2, §3, §4, §5

Molecules are shown by their SMILES. ≈ marks a conversion by molar mass, not a printed value.

As a reminder, the solubility is how much of the substance goes into solution per volume. A low value points to a poorly soluble substance. The IC50 is the concentration that inhibits the measured activity by half.

T7 sequence (P39900 106-263 limits assumed, species assumed): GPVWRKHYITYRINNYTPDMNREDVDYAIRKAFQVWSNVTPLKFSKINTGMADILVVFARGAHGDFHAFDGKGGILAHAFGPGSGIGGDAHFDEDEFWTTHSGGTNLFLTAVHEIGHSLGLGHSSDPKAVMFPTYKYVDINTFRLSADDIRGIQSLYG
T4 sequence (P22894 100-262 limits assumed, species assumed): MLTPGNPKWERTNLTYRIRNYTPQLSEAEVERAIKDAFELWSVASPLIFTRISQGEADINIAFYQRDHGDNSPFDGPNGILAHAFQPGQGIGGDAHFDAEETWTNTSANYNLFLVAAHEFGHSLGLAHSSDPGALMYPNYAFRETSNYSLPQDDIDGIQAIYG
T3 sequence (P08254 100-272 limits assumed, species assumed): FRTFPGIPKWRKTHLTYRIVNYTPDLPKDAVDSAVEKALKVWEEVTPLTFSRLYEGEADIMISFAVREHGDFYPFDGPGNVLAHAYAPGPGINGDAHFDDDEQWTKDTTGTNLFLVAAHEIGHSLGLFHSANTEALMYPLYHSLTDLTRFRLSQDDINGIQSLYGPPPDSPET
T1 sequence (P14780 94-707, species assumed): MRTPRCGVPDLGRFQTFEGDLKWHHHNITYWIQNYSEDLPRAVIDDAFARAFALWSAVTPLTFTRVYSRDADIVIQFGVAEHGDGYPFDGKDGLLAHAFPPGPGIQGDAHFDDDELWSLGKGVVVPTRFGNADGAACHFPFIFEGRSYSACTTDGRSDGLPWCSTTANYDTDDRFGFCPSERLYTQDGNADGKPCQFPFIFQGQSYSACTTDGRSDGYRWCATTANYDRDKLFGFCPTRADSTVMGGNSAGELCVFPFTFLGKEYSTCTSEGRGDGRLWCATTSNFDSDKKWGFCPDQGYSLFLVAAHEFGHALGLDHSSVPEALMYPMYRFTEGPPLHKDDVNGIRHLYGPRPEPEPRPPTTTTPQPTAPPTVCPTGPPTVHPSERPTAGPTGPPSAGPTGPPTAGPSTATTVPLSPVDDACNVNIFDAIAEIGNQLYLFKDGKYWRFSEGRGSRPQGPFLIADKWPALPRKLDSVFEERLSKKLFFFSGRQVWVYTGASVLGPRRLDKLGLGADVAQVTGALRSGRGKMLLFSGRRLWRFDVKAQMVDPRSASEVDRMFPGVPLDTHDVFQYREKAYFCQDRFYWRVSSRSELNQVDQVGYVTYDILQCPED

Turning to `Cc1cc(-c2nnn(CC(=O)NCC(=O)O)n2)cc(C(=O)NCc2ccc(F)cc2)n1` [Example 1, (2-{5-[2-(4-fluoro-benzylcarbamoyl)-6-methyl-pyridin-4-yl]-tetrazol-2-yl}-acetylamino)-acetic acid], the solubility in data set [1] was determined as 580 µg/mL (≈ 1360 µM). Further, the half-maximal inhibitory concentration (IC50) at MMP-9 full-length was greater than 100 µM; at MMP-2 full-length it was greater than 100 µM; on MMP-3 catalytic domain it was greater than 100 µM; in data set [2], 0.041 µM; at MMP-8 catalytic domain, greater than 100 µM; on MMP-7 full-length, greater than 100 µM. Also, the IC50 on MMP-1 full-length and at MMP-12 catalytic domain was greater than 100 µM throughout.
Molecule `Cc1cc(-c2nnn(CC(=O)NCCC(=O)O)n2)cc(C(=O)NCc2ccc(F)cc2)n1` [Example 2, 3-(2-{5-[2-(4-Fluoro-benzylcarbamoyl)-6-methyl-pyridin-4-yl]-tetrazol-2-yl}-acetylamino)-propionic acid] displayed a solubility in data set [1] of 220 µg/mL (≈ 498 µM). In addition, the IC50 at MMP-9 full-length was greater than 100 µM; at MMP-2 full-length it was 75 µM; on MMP-3 catalytic domain it was greater than 100 µM; in data set [2], 0.039 µM; on MMP-8 catalytic domain it was greater than 100 µM; at MMP-7 full-length it was greater than 100 µM. Moreover, the IC50 at MMP-1 full-length and at MMP-12 catalytic domain was greater than 100 µM throughout.
On to `Cc1cc(-c2nnn(CC(=O)N3CCCC3C(=O)O)n2)cc(C(=O)NCc2ccc(F)cc2)n1` (stereo not drawn) [Example 3], for which the solubility in [1] was determined as 1200 µg/mL (≈ 2570 µM). The IC50 in data set [2] was determined as 1.5 µM.
On to `O=C(O)C1CCCN(CCCn2nnc(-c3cccc(C#CCc4ccc(F)cc4)c3)n2)C1` (stereo not drawn) [Example 4], for which the IC50 was greater than 100 µM on MMP-9 full-length; greater than 100 µM on MMP-2 full-length; greater than 100 µM on MMP-3 catalytic domain; 5.2 µM in data set [2]; greater than 100 µM on MMP-8 catalytic domain; greater than 100 µM at MMP-7 full-length. The IC50 at MMP-1 full-length and on MMP-12 catalytic domain was greater than 100 µM each time.
For the molecule `Cc1cc(-c2nnn(CC(=O)O)n2)cc(C(=O)NCc2ccc(F)cc2)n1` [Example I2, {5-[2-(4-fluoro-benzylcarbamoyl)-6-methyl-pyridin-4-yl]-tetrazol-2-yl}-acetic acid], the solubility in data set [1] came out at 880 µg/mL (≈ 2380 µM). In [2], this molecule gave an IC50 of 4.5 µM.
